Values joined by “and” are separate entries in the source; they are usually repeats but may differ in a detail not shown here. Equal values may be shown once.
How the values were obtained:
Hs578T cells = test: Antiproliferation assay (cell counting, 48 h) in Hs578T breast cancer cells; assay type: cell-based, human; settings: for Selectivity Index for Hs578T: FB IC50 relative to Hs578T IC50; for IC50: Hs578T cells, 48 h incubation, cell counting
From the text: (§1) Regarding the different characteristics of the used breast cancer cell lines, we can notice that MDA-MB-231 and Hs578T are triple negative.
(§2) Primary skin normal fibroblasts were kindly provided by Prof. Emer.

MDA-MB-231 cells = test: Antiproliferation assay (cell counting, 48 h) in MDA-MB-231 breast cancer cells; assay type: cell-based, human; settings: for Selectivity Index for MDA-MB-231: FB IC50 relative to MDA-MB-231 IC50; for IC50: MDA-MB-231 cells, 48 h incubation, cell counting
From the text: as §1, §2

MCF-7 cells = test: Antiproliferation assay (cell counting, 48 h) in MCF-7 breast cancer cells; assay type: cell-based, human; settings: for Selectivity Index for MCF-7: FB IC50 relative to MCF-7 IC50; for IC50: MCF-7 cells, 48 h incubation, cell counting
From the text: as §1, §2

[1] = system: normal primary fibroblasts (FB); test: cells; assay type: cell-based, human; settings: for IC50: normal primary human fibroblasts, 48 h incubation, cell counting
From the text: as §2

[2] = system: MDA-MB-231, MCF-7 and Hs578T breast cancer cell lines; test: cells; settings: Homo sapiens, read-out: IC50 against all the cancer cell lines
Description: (§3) The antiproliferative activity of the synthesized DHA-chalcone hybrids 31–53 was evaluated using three characteristic breast carcinoma cell lines, MDA-MB-231, MCF-7, and Hs578T. For the sake of comparison, 5-FU, a widely used drug in clinical practice, was selected as positive control.
(§4) MCF-7 (ER-positive breast cancer cells, epithelial, low metastatic), MDA-MB-231, and Hs578T (triple negative breast cancer cells, mesenchymal, high metastatic) were obtained from American Type Culture Collection (ATCC) and cultured with DMEM high glucose/10% Fetal Bovine Serum (FBS) (supplied by Biosera). […] Cancer cells were seeded in 24 well plates (30,000 MCF-7 cells/well, 30.000 MDA-MB-231 cells/well, 25,000 Hs578T cells/well) and fibroblasts in 12 well plates (40,000 cells/well) and incubated in proper medium completed with 10% FBS for 48 h. Compounds were diluted in DMSO and working dilutions were prepared ranging from 5 to 200 μΜ for cancer cells and 1 to 100 μM for fibroblasts. All cells were incubated with working dilutions for 48 h. Afterwards, cells were detached by trypsinization, centrifuged at 3000 rpm for 3 min, and counted using a hemocytometer. Antiproliferation values were then calculated relatively to cancer or normal cells treated only with DMSO. […] IC50 values were calculated using GraphPad Prism 5 (Graph Pad Software).

[3] = system: MDA-MB-231, MCF-7 and Hs578T breast cancer cell lines
Description: as §3, §4

Compound	Selectivity Index for Hs578T (Hs578T cells)	IC50 (Hs578T cells; Homo sapiens, Hs-578T) [µM]	Selectivity Index for MDA-MB-231 (MDA-MB-231 cells)	IC50 (MDA-MB-231 cells; Homo sapiens) [µM]	Selectivity Index for MCF-7 (MCF-7 cells)	IC50 (MCF-7 cells; Homo sapiens, MCF7) [µM]	IC50 ([1]; Fibroblast) [µM]	IC50 [2] [µM]	times less toxic than 5-FU (selectivity indices) [3]	times more active than 5-FU [3]	times less toxic than 5-FU [1] [times]	IC50 (Hs578T cells) [µM]	IC50 (MDA-MB-231 cells) [µM]	IC50 (MCF-7 cells) [µM]	IC50 [1] [µM]
O=c1[nH]cc(F)c(=O)[nH]1 [Compound 5-FU, 5-fluorouracil, reference compound]	1.28	7.38 ± 2.49	0.49	19.2 ± 0.39	1.76	5.37 ± 1.16	9.43 ± 0.8	–	–	–	–	–	–	–	–
COC(=O)[C@]1(C)CCC[C@]2(C)c3cc(O)c(C(=O)/C=C/c4cccnc4)cc3CCC12 (stereo partly drawn) [Compound 33, (1R,4aS)-methyl 6-hydroxy-1,4a-dimethyl-7-((E)-3-(pyridin-3-yl)acryloyl)-1,2,3,4,4a, 9,10,10a-octahydrophenanthrene-1-carboxylate]	3.50	2.48 ± 0.13	1.47	5.89 ± 0.77	3.93	2.21 ± 0.4	8.68 ± 0.88	2.21 to 5.89	2.2-3 times	2.4-3.3 times	–	–	–	–	–
COC(=O)[C@]1(C)CCC[C@]2(C)c3cc(O)c(C(=O)/C=C/c4ccncc4)cc3CCC12 (stereo partly drawn) [Compound 35, (1R,4aS)-methyl 6-hydroxy-1,4a-dimethyl-7-((E)-3-(pyridin-4-yl)acryloyl)-1,2,3,4,4a, 9,10,10a-octahydrophenanthrene-1-carboxylate]	3.89	8.69 ± 0.55	0.91	37.1 ± 1.82	3.42	9.9 ± 0.05	33.8 ± 6.63	–	–	–	–	–	–	–	–
COC(=O)[C@]1(C)CCC[C@]2(C)c3cc(O)c(C(=O)/C=C/c4ccc5ccccc5n4)cc3CCC12 (stereo partly drawn) [Compound 38, (1R,4aS)-methyl 6-hydroxy-1,4a-dimethyl-7-((E)-3-(quinolin-2-yl)acryloyl)-1,2,3,4,4a, 9,10,10a-octahydrophenanthrene-1-carboxylate]	–	> 75	2.20	73 ± 2.31	22.7 and 22.75	7.06 ± 1.71	161 ± 13.1	–	–	–	12.9	–	–	–	–
COC(=O)[C@]1(C)CCC[C@]2(C)c3cc(O)c(C(=O)/C=C/c4cnc5ccccc5c4)cc3CCC12 (stereo partly drawn) [Compound 39, (1R,4aS)-methyl 6-hydroxy-1,4a-dimethyl-7-((E)-3-(quinolin-3-yl)acryloyl)-1,2,3,4,4a, 9,10,10a-octahydrophenanthrene-1-carboxylate]	2.09	15.7 ± 2.74	–	> 75	2.86	11.5 ± 1.02	32.9 ± 2.27	–	–	–	–	–	–	–	–
COC(=O)[C@]1(C)CCC[C@]2(C)c3cc(O)c(C(=O)/C=C/c4ccnc5ccccc45)cc3CCC12 (stereo partly drawn) [Compound 40, (1R,4aS)-methyl 6-hydroxy-1,4a-dimethyl-7-((E)-3-(quinolin-4-yl)acryloyl)-1,2,3,4,4a, 9,10,10a-octahydrophenanthrene-1-carboxylate]	–	> 75	–	> 75	–	> 75	92.1 ± 5.47	–	–	–	–	–	–	–	–
COC(=O)[C@]1(C)CCC[C@]2(C)c3cc(O)c(C(=O)/C=C/c4ccsc4)cc3CCC12 (stereo partly drawn) [Compound 44, (1R,4aS)-methyl 6-hydroxy-1,4a-dimethyl-7-((E)-3-(thiophen-3-yl)acryloyl)-1,2,3,4,4a,9,10,10a-octahydrophenanthrene-1-carboxylate]	2.05	21.5 ± 1.2	1.75	25.2 ± 0.84	12.76	3.45 ± 0.36	44 ± 1.84	–	–	–	–	–	–	–	–
COC(=O)[C@]1(C)CCC[C@]2(C)c3cc(O)c(/C=C/C(=O)c4ccccn4)cc3CCC12 (stereo partly drawn) [Compound 49, (1R,4aS)-methyl 6-hydroxy-1,4a-dimethyl-7-((E)-3-oxo-3-(pyridin-2-yl)prop-1-en-1-yl)-1,2,3,4,4a,9,10,10a-octahydrophenanthrene-1-carboxylate]	1.39	17.1 ± 2.13	1.06	22.4 ± 0.81	0.52	45.9 ± 1.52	23.8 ± 1.07	–	–	–	–	–	–	–	–
COC(=O)[C@]1(C)CCC[C@]2(C)c3cc(O)c(/C=C/C(=O)c4cnccn4)cc3CCC12 (stereo partly drawn) [Compound 51, (1R,4aS)-methyl 6-hydroxy-1,4a-dimethyl-7-((E)-3-oxo-3-(pyrazin-2-yl)prop-1-en-1-yl)-1,2,3,4,4a,9,10,10a-octahydrophenanthrene-1-carboxylate]	0.88	23.11 ± 0.04	1.14	18 ± 2.78	–	> 75	20.5 ± 2.46	–	–	–	–	–	–	–	–
(1R,4aS)-methyl 6-hydroxy-1,4a-dimethyl-7-((E)-3-oxo-3-(pyridin-3-yl)prop-1-en-1-yl)-1,2,3,4,4a,9,10,10a-octahydrophenanthrene-1-carboxylate [Compound 50]	–	–	–	–	–	–	–	–	–	–	–	> 75	> 75	> 75	192 ± 51.4
(1R,4aS)-methyl 7-((E)-3-(1H-pyrrol-3-yl)acryloyl)-6-hydroxy-1,4a-dimethyl-1,2,3,4, 4a,9,10,10a-octahydrophenanthrene-1-carboxylate [Compound 43]	–	–	–	–	–	–	–	–	–	–	–	16.6 ± 2.83	29.2 ± 3.26	4.29 ± 0.29	33 ± 6.1
(1R,4aS)-methyl 7-((E)-3-(2-chloroquinolin-4-yl)acryloyl)-6-hydroxy-1,4a-dimethyl-1,2,3,4, 4a,9,10,10a-octahydrophenanthrene-1-carboxylate [Compound 41]	–	–	–	–	–	–	–	–	–	–	–	10.3 ± 0.25	7.12 ± 0.2	3.99 ± 0.15	7.96 ± 0.1
Tert-butyl 4-(4-((E)-3-((4bS,8R)-3-methoxy-8-(methoxycarbonyl)-4b,8-dimethyl-4b,5, 6,7,8,8a,9,10-octahydrophenanthren-2-yl)acryloyl)phenyl)piperazine-1-carboxylate [Compound 48]	–	–	–	–	–	–	–	–	–	–	–	23.2 ± 2.5	> 75	25.62 ± 0.09	–

From PMC9181926, “Synthesis and Antiproliferative Activity of Novel Dehydroabietic Acid-Chalcone Hybrids” (Molecules, 2022)
